Results: US20040079671A1, “Medicinal product packaging” (priority 2002, published 2004)

Assay: Accelerated stability at 56° C. of chlorobutanol and paraben test solution in untreated and fluorinated polypropylene bottles (HPLC concentration)
Type: physicochemical
Experimental: Polypropylene bottles (dropper-type) were obtained from Owens-Brockway, Ill. (capacity 5 ml). Some of the bottles were sent to a company called Fluoro-Seal (Columbus, Ohio) where they were treated for fluorine-coating under a proprietary method. After the bottles were ‘fluorosealed’ (done at ‘level 5’) they were washed in dilute soap solution rinsed several times in de-ionized water and dried before use. The bottles were then filled with 3 ml of a chlorobutanol and paraben test solution (Table 4). Control samples of untreated polypropylene bottles filled with the same solution were also prepared. All samples were prepared in duplicate and put up on accelerated stability at 56° C. Before putting on stability, ‘0’ time-point samples from all bottles were collected and the bottles were weighed. Concentration of cholorobutanol and methyl- and propyl parabens was determined by an HPLC method. Samples were taken at 1 wk, 2 wk and 4 wks by expelling ˜50-100 mcg droplets into tared vials. Bottles were weighed before and after sampling, before returning to condition. The following terms are used in Table 4, below. PP means polypropylene (untreated). PP-FL or PP-FL5 means fluorinated polypropylene at service provider's specified level of ‘5’. LDPE is low density polyethylene (untreated). LDPE-FL5 means low density polyethylene fluorinated at service provider's specified level of ‘5’. Duplicate samples were measured.

Conc. of propylparaben (bottle FL-5P P-2 (fluorinated polypropylene, level 5), time of storage 0 weeks): 102 µg/mL
Conc. of propylparaben (bottle FL-5P P-2 (fluorinated polypropylene, level 5), time of storage 1 week): 95.3 µg/mL
Conc. of propylparaben (bottle FL-5P P-2 (fluorinated polypropylene, level 5), time of storage 2 weeks): 96.6 µg/mL
Conc. of propylparaben (bottle FL-5P P-2 (fluorinated polypropylene, level 5), time of storage 4 weeks): 94.6 µg/mL
Conc. of propylparaben (bottle FL-5 PP-1 (fluorinated polypropylene, level 5), time of storage 0 weeks): 104 µg/mL
Conc. of propylparaben (bottle FL-5 PP-1 (fluorinated polypropylene, level 5), time of storage 1 week): 95.3 µg/mL
Conc. of propylparaben (bottle FL-5 PP-1 (fluorinated polypropylene, level 5), time of storage 2 weeks): 96.6 µg/mL
Conc. of propylparaben (bottle FL-5 PP-1 (fluorinated polypropylene, level 5), time of storage 4 weeks): 89.3 µg/mL
Conc. of propylparaben (bottle PP-1 (untreated polypropylene), time of storage 0 weeks): 103 µg/mL
Conc. of propylparaben (bottle PP-1 (untreated polypropylene), time of storage 1 week): 86.2 µg/mL
Conc. of propylparaben (bottle PP-1 (untreated polypropylene), time of storage 2 weeks): 82.5 µg/mL
Conc. of propylparaben (bottle PP-1 (untreated polypropylene), time of storage 4 weeks): 69.5 µg/mL
Conc. of propylparaben (bottle PP-2 (untreated polypropylene), time of storage 0 weeks): 103 µg/mL
Conc. of propylparaben (bottle PP-2 (untreated polypropylene), time of storage 1 week): 86.9 µg/mL
Conc. of propylparaben (bottle PP-2 (untreated polypropylene), time of storage 2 weeks): 77.8 µg/mL
Conc. of propylparaben (bottle PP-2 (untreated polypropylene), time of storage 4 weeks): 65.1 µg/mL
Structure (SMILES): CCCOC(=O)c1ccc(O)cc1 [PROPYLPARABEN, propylparaben]
